Reference: patent US11365194B2, “Analgesic drug using PAC1 receptor antagonistic drug” (KAGOSHIMA UNIVERSITY, priority 2017, dated 2022)

Assays:
[1] = system: mechanical allodynia induced by PACAP intrathecal administration; assay: Mechanical allodynia induced by PACAP intrathecal administration (von Frey test); format: in vivo, mouse; conditions: 10 or 100 pmol, simultaneous i.t.; FIGS. 5A and B
Method: When single i.t. administration of PACAP (100 pmol/5 L) to mouse was performed, mechanical stimulus sensitive phenomenon (mechanical allodynia) occurred over a long period of time (for at least three months after the administration) (Non Patent Literature 1). […] The mechanical sensitive phenomenon induced by PACAP was not suppressed in an example in which a solvent (VEH: 0.2% DMSO-containing artificial cerebrospinal fluid) was used instead of the compounds.
(§1) Male ddY mice (6 to 12 weeks old) were used, and the threshold to a mechanical stimulus was evaluated by the vonFrey test. Specifically, the 50% withdrawal reflex threshold (Threshold) was calculated in accordance with the method of Chaplan et al. (Chaplan et al., J. Neurosci. Meth. 53, 55-63, 1994). Each compound was dissolved in 99.7% DMSO, and then the resulting solution was diluted with an artificial cerebrospinal fluid for preparation (final concentration of DMSO was 0.2%).

[2] = system: mechanical allodynia induced by spinal nerve injury; assay: Spinal nerve ligation (SNL) model, i.t. administration on 14th day, mechanical allodynia; format: in vivo, mouse; conditions: 100 pmol i.t. on 14th day after operation
Method: as §1
Spinal nerve ligation (SNL) models in which the fourth lumbar cord spinal nerves of male ddY (6 to 12 weeks old) were ligated with silk thread were used. The i.t. administration of a solvent (VEH: 10% DMSO-containing saline), PA-8, the compound 2j or the compound 2o (FIG. 9A), or PA-9 or the compound 3d (FIG. 9B) was performed on the 14th day after the operation. The method of causing a mechanical stimulus is the same as that of Example 5, and data were acquired for 24 hours after i.t. administration over time.

[3] = system: mechanical allodynia induced by spinal nerve injury; assay: Spinal nerve ligation (SNL) model, repeated intraperitoneal administration, mechanical allodynia; format: in vivo, mouse
Method: as §1
Spinal nerve ligation (SNL) models in which the fourth lumbar cord spinal nerves of male ddY (6 to 12 weeks old) were ligated with silk thread were used. A solvent (VEH: 10% DMSO-containing saline). PA-8, the compound 2j or the compound 20 was intraperitoneally administered (30 mg/kg) 5 to 10 minutes before the ligation, and once a day for 7 days thereafter. The method of causing a mechanical stimulus is the same as that of Example 5, and data from the first day after the ligation (D1) are data 1 hour after the administration of VEH or the drugs.

[4] = system: pain-like behavior induced by formalin; assay: Pain-like behavior induced by formalin; format: in vivo, mouse; conditions: 0.1 to 10 nmol i.t.
Method: The first phase is direct action of formalin on sensory nerves (to around 10 minutes after formalin administration). In the second phase (from around 10 minutes to 60 minutes after formalin administration), hypersensitization formed in spinal dorsal horn cells during the first phase (a type of plastic phenomenon in the nervous system also called central sensitization) is a main cause, and inflammatory reaction at the site of formalin administration contributes importantly.

[5] = target: T1, PAC1 receptor (Homo sapiens, UniProt P41586); conditions: Non Patent Literature 3; cited from earlier work
T1 sequence (P41586 21-468): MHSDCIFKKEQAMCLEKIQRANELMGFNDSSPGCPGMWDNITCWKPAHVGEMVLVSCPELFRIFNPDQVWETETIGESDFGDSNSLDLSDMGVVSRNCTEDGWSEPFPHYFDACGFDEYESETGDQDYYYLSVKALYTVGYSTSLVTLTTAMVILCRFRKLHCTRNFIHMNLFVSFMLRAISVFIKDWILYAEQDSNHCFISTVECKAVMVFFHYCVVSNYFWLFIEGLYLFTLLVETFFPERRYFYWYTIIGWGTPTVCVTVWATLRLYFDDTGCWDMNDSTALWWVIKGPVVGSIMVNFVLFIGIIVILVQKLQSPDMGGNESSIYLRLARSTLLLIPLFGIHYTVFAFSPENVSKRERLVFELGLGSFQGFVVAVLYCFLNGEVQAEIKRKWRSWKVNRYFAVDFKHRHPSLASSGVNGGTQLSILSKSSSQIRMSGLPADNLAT

[6] = target: T2, mouse VPAC1 receptor-expressing CHO cell (VPAC1/CHO cell) (Mus musculus, UniProt P97751); assay: CREB phosphorylation by PACAP stimulus, Western blot, VPAC1/CHO cell; format: cell-based; conditions: compound 10 μM to 10 nM
T2 construct: expressed in transfected cells; host or cells: CHO cells
T2 sequence (P97751 31-459): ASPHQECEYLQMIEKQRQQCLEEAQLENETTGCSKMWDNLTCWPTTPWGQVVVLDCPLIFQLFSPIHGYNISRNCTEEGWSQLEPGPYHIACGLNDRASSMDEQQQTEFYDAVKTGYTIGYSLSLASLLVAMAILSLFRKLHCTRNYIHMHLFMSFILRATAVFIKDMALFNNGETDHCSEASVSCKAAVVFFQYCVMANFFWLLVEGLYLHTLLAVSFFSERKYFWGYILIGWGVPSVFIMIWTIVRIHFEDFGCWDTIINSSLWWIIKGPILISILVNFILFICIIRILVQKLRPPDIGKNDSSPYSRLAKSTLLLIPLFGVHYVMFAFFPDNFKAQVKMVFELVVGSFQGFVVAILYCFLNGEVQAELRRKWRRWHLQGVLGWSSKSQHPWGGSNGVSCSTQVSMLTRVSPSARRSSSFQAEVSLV
Method: The effect of each compound on the phosphorylation of CREB (cAMP-responsive element-binding protein) produced by a PACAP stimulus was examined by Western blot analysis using an anti-phosphorylated CREB (pCREB) antibody with a mouse PAC receptor-expressing CHO cell (PAC1/CHO cell) and a mouse VPAC1 receptor-expressing CHO cell (VPAC1/CHO cell).
Specifically, treatment with a compound (PA-8, PA-9, compounds 2j, 20 and 3d) at 10 μM to 10 nM or a solvent therefor (VEH: 0.1% DMSO-containing phosphate buffer solution) was performed for 30 minutes, 1 nM PACAP was then added, and protein was recovered within 30 minutes after a PACAP stimulus.

[7] = system: spontaneous pain-like behavior induced by PACAP intrathecal administration; assay: Spontaneous pain-like behavior induced by PACAP intrathecal administration; format: in vivo, mouse; conditions: simultaneous i.t. with PACAP (100 pmol), counted for 30 minutes
Method: When PACAP (100 pmol/5 L) is intrathecally administered to a mouse in a single dose (single i.t. injection), spontaneous pain-like behavior in which the mouse licks or bites the rear half of the body occurs about 5 minutes after the administration (and continues for several hours) (Ohnou et al. J. Pharmacol. Sci. 130, 194-203, 2016). […] Male ddY mice (6 to 12 weeks old) were used, and the behaviors were taken on video. The number of times of spontaneous pain-like behaviors for 30 minutes after the administration was counted.

In the case of `C=CCOc1ccc(C2CC(=O)Nc3nc(N)[nH]c(=O)c32)cc1OC` (stereo not shown) [PA-8, reference compound], the “suppression of long-term mechanical allodynia induced by PACAP” value [1] is reported as “strongly suppressed”, the anti-mechanical allodynia effect [2] is reported as “suppressed the onset of mechanical allodynia significantly” and the “suppression of the onset of mechanical allodynia” value ([3]; 30 mg/kg i.p. before ligation and once a day for 7 days) is reported as “suppressed the onset of mechanical allodynia significantly”. The “mechanical threshold after discontinuation of administration” value ([3]; 30 mg/kg i.p., discontinued on the seventh day, versus VEH group) was “maintained the mechanical threshold highly significantly for at least 7 days thereafter”, the “effect on first phase reaction” value [4] was “did not affect the first phase reaction” and the “effect on second phase reaction” value [4] was “suppressed the second phase reaction significantly depending on the concentration”. For the same molecule, the “PAC1 receptor antagonistic action” value [5] was “have PAC1 receptor antagonistic action”, the “suppression of CREB phosphorylation by PACAP (1 nM)” value [6] was “did not suppress CREB phosphorylation by PACAP (1 nM)” and the “suppression of PACAP-induced spontaneous pain-like behavior” value ([7]; 10 pmol) was “suppressed the PACAP response significantly”. For the same molecule, the “suppression of PACAP-induced spontaneous pain-like behavior” value ([7]; 100 pmol) was “suppressed the PACAP response significantly”.
